Results on eleven molecules are retold here after ChEMBL document CHEMBL1201862, “PubChem BioAssay data set” (2004).

Test systems include SNB-75; SNB-19; 786-0; UACC-62; U-251; SF-539; HOP-62; UACC-257; EKVX; HT-29; SN12C; A549; SK-MEL-28; IGROV-1; CAKI-1; NCI-H23; OVCAR-8; NCI-H460; Malme-3M.
Common to all, as to test: NCI tumour cell line growth inhibition, 48 h

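Method: 48-hour compound exposure of cells in 96-well plates, five concentrations, linear interpolation of endpoints. The concentration for 50% growth inhibition is given as GI50.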 Activity calls are given as the source filed them. Rule as the data show it: active = GI50 up to about 1.1 µM and inactive = higher.

In the case of `CC(C)(C)c1ccc(OCCOCCOc2ccc(C(C)(C)C)cc2S(N)(=O)=O)c(S(N)(=O)=O)c1`, the GI50 is > 100 µM (inactive) with SNB-75; > 100 µM (inactive) in the assay with SNB-19; > 100 µM (inactive) in the assay with 786-0; 52.1 µM (inactive) in the assay on UACC-62; > 100 µM (inactive) in the assay on U-251; > 100 µM (inactive) in the assay with SF-539. Further, the GI50 with HOP-62 was > 100 µM (inactive); with UACC-257, 45.6 µM (inactive); in the assay on EKVX it was > 100 µM (inactive); with HT-29, 6.84 µM (inactive); in the assay on SN12C, > 100 µM (inactive); in the assay with A549 it was 35.8 µM (inactive). In addition, the GI50 is 94.6 µM (inactive) in the assay on SK-MEL-28; > 100 µM (inactive) in the assay with IGROV-1; > 100 µM (inactive) in the assay with CAKI-1; > 100 µM (inactive) with NCI-H23; > 100 µM (inactive) in the assay with OVCAR-8; 34.9 µM (inactive) in the assay on NCI-H460. Further, in the assay on Malme-3M, the GI50 is 28.5 µM (inactive).
Turning to `O=C(c1ccccc1)c1nnn(Cc2cccc(Cl)c2)c1C(=O)c1ccccc1`, the GI50 in the assay with SNB-75, with SNB-19, in the assay on 786-0, in the assay with UACC-62, in the assay on U-251 and in the assay on HOP-62 was > 100 µM (inactive) throughout. For the same molecule, the GI50 in the assay on UACC-257 was > 100 µM (inactive); with EKVX it was 44.8 µM (inactive); in the assay with HT-29, > 100 µM (inactive); with A549 it was 25.2 µM (inactive); with SK-MEL-28, > 100 µM (inactive); in the assay with IGROV-1 it was > 100 µM (inactive). The GI50 in the assay on CAKI-1 is 98.2 µM (inactive); in the assay on NCI-H23 it was > 100 µM (inactive); in the assay on OVCAR-8, > 100 µM (inactive); with NCI-H460 it was 8.17 µM (inactive); in the assay with Malme-3M, > 100 µM (inactive).
Regarding `CC(=O)NC1C(OCc2ccccc2)OC(CO)C(O)C1OC(C)C(=O)N[C@@H](C)C(=O)N[C@H](CCC(=O)OCCNc1c2ccccc2nc2cccc([N+](=O)[O-])c12)C(N)=O` (some centres undefined), the GI50 with SNB-75 is 0.0114 µM (active); in the assay with SNB-19, 0.000187 µM (active); in the assay with 786-0, 0.000328 µM (active); in the assay with UACC-62 it was 0.000451 µM (active); in the assay on SF-539, 0.00313 µM (active); with UACC-257 it was 0.00339 µM (active). The GI50 was 0.00165 µM (active) in the assay with EKVX; 0.000186 µM (active) in the assay with HT-29; 0.00531 µM (active) in the assay with SN12C; 0.00146 µM (active) in the assay with A549; 0.00441 µM (active) in the assay with SK-MEL-28; 0.0215 µM (active) in the assay on IGROV-1. Also, the GI50 in the assay with CAKI-1 was 0.00625 µM (active); in the assay on NCI-H23, 0.00148 µM (active); in the assay on OVCAR-8, 0.00235 µM (active); with NCI-H460, 0.000129 µM (active); in the assay on Malme-3M, 0.00158 µM (active).
Regarding `CCOC(=O)NC(=O)c1cn(CCCCCCOC(=O)NCCCCCCNC(=O)OCCCCCCn2cc(C(=O)NC(=O)OCC)c(=O)[nH]c2=O)c(=O)[nH]c1=O`, the GI50 in the assay with SNB-75, in the assay with SNB-19, with 786-0, with UACC-62, with U-251 and in the assay with SF-539 was > 100 µM (inactive) throughout. Further, the GI50 in the assay with HOP-62, with UACC-257, with EKVX, in the assay with HT-29, with SN12C and with A549 was > 100 µM (inactive) in each case. The GI50 in the assay with SK-MEL-28, in the assay with IGROV-1, with CAKI-1, in the assay on OVCAR-8, in the assay with NCI-H460 and with Malme-3M was > 100 µM (inactive) in each case.
Regarding `O=CN/C=C/c1ccccc1O`, the GI50 with SNB-75, with SNB-19, in the assay with 786-0, in the assay on UACC-62, in the assay with U-251 and with SF-539 was > 100 µM (inactive) in each case. Moreover, the GI50 with HOP-62, in the assay on UACC-257, with EKVX, in the assay on HT-29, in the assay with SN12C and with A549 was > 100 µM (inactive) throughout. Also, the GI50 with SK-MEL-28, in the assay with IGROV-1, with CAKI-1, in the assay on NCI-H23, in the assay with OVCAR-8 and with NCI-H460 was > 100 µM (inactive) each time. Besides, in the assay on Malme-3M, the GI50 was > 100 µM (inactive).
Take `COC(=O)C1=C(\O)C[C@@]2(C)CC[C@@H](C(=O)OC)C2C/C=C\1C(=O)OC` (some centres undefined): the GI50 in the assay on SNB-75 was > 100 µM (inactive); with SNB-19, > 100 µM (inactive); in the assay on 786-0, > 100 µM (inactive); in the assay with UACC-62 it was > 100 µM (inactive); with U-251, > 100 µM (inactive); in the assay on SF-539, 19.7 µM (inactive). Further, the GI50 in the assay on HOP-62 was > 100 µM (inactive); in the assay with UACC-257, 72.8 µM (inactive); in the assay on EKVX, > 100 µM (inactive); in the assay with HT-29 it was > 100 µM (inactive); in the assay with SN12C it was 24.1 µM (inactive); in the assay on A549, 87.7 µM (inactive). Besides, the GI50 in the assay on SK-MEL-28 is 47 µM (inactive); in the assay with IGROV-1 it was > 100 µM (inactive); in the assay with CAKI-1, > 100 µM (inactive); in the assay on OVCAR-8, > 100 µM (inactive); with NCI-H460, > 100 µM (inactive); in the assay with Malme-3M, > 100 µM (inactive).
As to `CC12CCCC(C#N)(C1)OC2=O` (centres undefined), the GI50 with SNB-75, in the assay with SNB-19, with 786-0, with UACC-62, in the assay on U-251 and in the assay on SF-539 was > 100 µM (inactive) throughout. For the same molecule, the GI50 in the assay with HOP-62, in the assay on UACC-257, with EKVX, in the assay with HT-29, in the assay on SN12C and in the assay with A549 was > 100 µM (inactive) in each case. The GI50 with SK-MEL-28, in the assay on IGROV-1, in the assay with CAKI-1, in the assay on NCI-H23, in the assay with OVCAR-8 and in the assay with NCI-H460 was > 100 µM (inactive) each time. Also, the GI50 in the assay on Malme-3M is > 100 µM (inactive).
For `Cn1c(=O)c2c(nc3n2C(CCl)CO3)n(C)c1=O` (centres undefined), the GI50 in the assay with SNB-75, in the assay with SNB-19, with 786-0, with UACC-62, in the assay with U-251 and with SF-539 was > 100 µM (inactive) in each case. In addition, the GI50 in the assay on HOP-62, with UACC-257, in the assay with EKVX, in the assay with HT-29, with SN12C and in the assay with SK-MEL-28 was > 100 µM (inactive) throughout. In addition, the GI50 with IGROV-1, in the assay on CAKI-1, in the assay with NCI-H23, with OVCAR-8, in the assay with NCI-H460 and in the assay with Malme-3M was > 100 µM (inactive) each time.
On to `CCC1=C(C[C@H]2NCCc3cc(OC)c(OC)cc32)C[C@H]2c3cc(OC)c(OC)cc3CCN2C1`, for which the GI50 is 0.0332 µM (active) with SNB-75; 0.0261 µM (active) in the assay on 786-0; 0.0336 µM (active) in the assay with UACC-62; 0.031 µM (active) in the assay with U-251; 0.0326 µM (active) in the assay on SF-539; 0.0286 µM (active) in the assay with HOP-62. Moreover, the GI50 in the assay with UACC-257 is 0.0473 µM (active); in the assay with EKVX, 0.0362 µM (active); in the assay on HT-29, 0.0272 µM (active); in the assay with SN12C, 0.0326 µM (active); in the assay on A549, 0.0317 µM (active); in the assay on SK-MEL-28 it was 0.0365 µM (active). Also, the GI50 was 0.0445 µM (active) in the assay on IGROV-1; 0.0312 µM (active) in the assay with CAKI-1; 0.0191 µM (active) in the assay on NCI-H23; 0.0272 µM (active) with OVCAR-8; 0.0261 µM (active) with NCI-H460; 0.136 µM (active) in the assay with Malme-3M.
Regarding `CN1CCCC2[C@@H]3CCC4c5nonc5CC[C@]4(C)C3CC[C@@]21C` (some centres undefined), the GI50 in the assay with SNB-75 is 23.4 µM (inactive); in the assay with SNB-19 it was > 100 µM (inactive); in the assay with 786-0, > 100 µM (inactive); in the assay with UACC-62, 24.7 µM (inactive); in the assay on U-251, > 100 µM (inactive); in the assay on SF-539, > 100 µM (inactive). Further, the GI50 is 35 µM (inactive) in the assay with UACC-257; > 100 µM (inactive) with EKVX; 38.1 µM (inactive) in the assay with HT-29; 98.6 µM (inactive) with SN12C; > 100 µM (inactive) in the assay with A549; 37.6 µM (inactive) in the assay with SK-MEL-28. For the same molecule, the GI50 in the assay on IGROV-1, in the assay with CAKI-1, in the assay with NCI-H23, in the assay on OVCAR-8, in the assay on NCI-H460 and in the assay with Malme-3M was > 100 µM (inactive) in each case.
As to `[O-]c1c2c(nn1-c1ccc(F)cc1)c1ccccc1c[n+]2Cc1ccccc1`, the GI50 in the assay on SNB-75 is 23.3 µM (inactive); in the assay on SNB-19 it was 30.8 µM (inactive); in the assay on UACC-62, 2 µM (inactive); in the assay with U-251, 16.4 µM (inactive); with SF-539 it was 3.26 µM (inactive); with HOP-62, 16.5 µM (inactive). For the same molecule, the GI50 in the assay with UACC-257 was 11.5 µM (inactive); in the assay on EKVX, 19.4 µM (inactive); in the assay with HT-29 it was 10.2 µM (inactive); in the assay with SN12C, 16.4 µM (inactive); with A549 it was 12.8 µM (inactive); with SK-MEL-28, 15.3 µM (inactive). The GI50 in the assay with IGROV-1 is 11.1 µM (inactive); with CAKI-1, 18.8 µM (inactive); in the assay on NCI-H23, 16.3 µM (inactive); in the assay with OVCAR-8 it was 12.8 µM (inactive); in the assay with NCI-H460 it was 10.5 µM (inactive); in the assay on Malme-3M it was 11.7 µM (inactive).
